Source: patent US20080182859A1 (Curis, Inc., priority 2006, published 2008)
Structures can show the parent of a compound that is named as a salt.

Columns and labels:
C57BL/6 male mice [1] = assay: C57BL/6 hair growth after topical dosing; type: in vivo, mouse; settings: shaved lower back, dosed topically once, visually graded for melanogenesis and hair regrowth
Experimental: (§1) A mouse model of male pattern baldness is used to investigate the effectiveness of the present compounds for growing hair. Agonists for the sonic hedgehog pathway that act by binding and activating Smoothened were tested in a formulation of 50:30:20 PG:EtOH:water or 5:95 DMSO:acetone vehicle. C57BL/6 male mice (48-52 days old on arrival) from Charles River Labs were used on the study. The mice were housed and cared for according to established procedures. Food and water were ad libitum. On Day 0, the mice were shaved on their lower back, an area of ˜1.5 inches x ˜2 inches with Wahl clippers using a surgical blade. On day −3, the mice were anesthetized with isoflurane, their back was rinsed with a pad of 70% ethanol, a placebo pellet or a DHT pellet (2.5 mg 21 day pellet) were implanted subcutaneously between the shoulder blades with a 10 gauge trochar. DHT pellet transplantation results in maintenance of existing hair follicles in the resting (telogen) phase. The hole was stapled with a sterile autoclip and the mice were returned to their cage after awaking. The mice were dosed topically once and visually graded daily, except weekends, for melanogenesis and hair regrowth of fur in the dosed area (Table 4).

C57BL/6 male mice [2] = assay: DHT-induced alopecia (mouse model of male pattern baldness); type: in vivo; settings: C57BL/6 male mice with subcutaneous DHT pellet (2.5 mg 21 day), dosed topically once, visually graded for hair regrowth
Experimental: as §1
In the absence of treatment with the present compounds, the follicles remain in telogen rather than following the normal time course of the mouse hair cycle.

sonic hedgehog pathway [3] = assay: Hedgehog pathway Gli-luciferase reporter assay, S12 cells; type: cell-based; settings: S12 mouse embryonic mesenchymal cells, read-out: S12 Avg. EC50
Outline: (§2)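 Luminescence read-out of gli-promoter luciferase in stably transfected cells; 11-point 1:3 dose curves, 24 h compound exposure in 0.5% FBS, ± octyl-modified Hh protein 1–5 ng/ml. AMAX as % of plate low/high controls; EC50 from curve; >20% AMAX counted active.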

sonic hedgehog pathway [4] = assay: Hedgehog pathway Gli-luciferase reporter assay, TM3 cells; type: cell-based; settings: TM3 mouse Leydig cells
Outline: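 Reporter cells stably selected after gli-luciferase plasmid transfection; test article dosed over 11 points (1:3). Read as luminescence after 24 h treatment in 0.5% serum; activity >20% AMAX versus plate controls deemed active.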

sonic hedgehog pathway [5] = assay: Human hedgehog reporter assay Daoy-GliLuc (DGL); type: cell-based; settings: Daoy human medulloblastoma cells, Gli-luciferase reporter; read-out: Daoy Avg. EC50
Outline: as §2

sonic hedgehog pathway [6] = assay: Human hedgehog reporter assay HEPM-GliLuc (HGL); type: cell-based; settings: HepM human embryonic palatal mesenchymal cells, Gli-luciferase reporter
Outline: as §2

`CN[C@H]1CC[C@H](N(Cc2cc(-c3ccnc(C(=O)N(C)C)c3)ccc2OC)C(=O)c2sc3c(F)ccc(F)c3c2Cl)CC1` was tested, and the “C57BL/6 Hair Growth” value (C57BL/6 male mice [1]) was “yes” and the “Androgenetic Alopecia” value (C57BL/6 male mice [2]) was “yes”.
`CN[C@H]1CC[C@H](N(Cc2cc(-c3ccnc(C)c3)ccc2OC)C(=O)c2sc3ccccc3c2Cl)CC1` was tested, and the “C57BL/6 Hair Growth” value (C57BL/6 male mice [1]) was “yes” and the “Androgenetic Alopecia” value (C57BL/6 male mice [2]) was “yes”.
`CN[C@H]1CC[C@H](N(Cc2cc(-c3ccc(S(C)(=O)=O)cc3)ccc2OC)C(=O)c2sc3ccccc3c2Cl)CC1` was tested, and the “C57BL/6 Hair Growth” value (C57BL/6 male mice [1]) was “yes” and the “Androgenetic Alopecia” value (C57BL/6 male mice [2]) was “yes”.
For `CCOc1ccc(-c2ccc(C#N)cc2)cc1CN(C(=O)c1sc2ccccc2c1Cl)[C@H]1CC[C@H](NC)CC1`, the “C57BL/6 Hair Growth” value (C57BL/6 male mice [1]) was “yes”.
Work on `CN[C@H]1CC[C@@H](N(Cc2cc(-c3ccc(C(=O)N(C)C)cc3)ccc2OC)C(=O)c2sc3c(F)ccc(F)c3c2Cl)CC1` [Compound 333, 3-Chloro-4,7-difluoro-benzo[b]thiophene-2-carboxylic acid (4′-dimethylcarbamoyl-4-methoxy-biphenyl-3-ylmethyl)-(4-methylamino-cyclohexyl)-amide hydrochloride] yielded an EC50 (sonic hedgehog pathway [3]) of less than 50 nM, an EC50 (sonic hedgehog pathway [4]) of less than 50 nM and an EC50 (sonic hedgehog pathway [5]) of less than 50 nM. The EC50 (sonic hedgehog pathway [6]) was less than 50 nM.
In the case of `CN[C@H]1CC[C@H](N(Cc2cc(-c3ccnc(C(=O)O)c3)ccc2OC)C(=O)c2sc3c(F)ccc(F)c3c2Cl)CC1`, the “C57BL/6 Hair Growth” value (C57BL/6 male mice [1]) is reported as “no”.
For `CN[C@H]1CC[C@@H](N(Cc2cc(-c3ccnc(C(=O)N(C)C)c3)ccc2OC)C(=O)c2sc3c(F)ccc(F)c3c2Cl)CC1` [Compound R9, 4-(3-{[(3-Chloro-4,7-difluoro-benzo[b]thiophene-2-carbonyl)-(4-methylamino-cyclohexyl)-amino]-methyl}-4-methoxy-phenyl)-pyridine-2-carboxylic acid dimethylamide dihydrochloride], the EC50 (sonic hedgehog pathway [3]) was less than 50 nM, the EC50 (sonic hedgehog pathway [4]) was less than 50 nM and the EC50 (sonic hedgehog pathway [5]) was less than 50 nM. It also gave an EC50 (sonic hedgehog pathway [6]) of less than 50 nM.
For `CN[C@H]1CC[C@@H](N(Cc2cc(-c3ccnc(C(N)=O)c3)ccc2OC)C(=O)c2sc3c(F)ccc(F)c3c2Cl)CC1` [354 (R17)], the EC50 (sonic hedgehog pathway [3]) was less than 50 nM, the EC50 (sonic hedgehog pathway [4]) was less than 50 nM and the EC50 (sonic hedgehog pathway [5]) was less than 50 nM. The EC50 (sonic hedgehog pathway [6]) was less than 50 nM.
`CN[C@H]1CC[C@@H](N(Cc2cc(-c3ccc(N(C)C(C)=O)cc3)ccc2OC)C(=O)c2sc3c(F)ccc(F)c3c2Cl)CC1` [Compound 336, 3-Chloro-4,7-difluoro-benzo[b]thiophene-2-carboxylic acid [4′-(acetyl-methyl-amino)-4-methoxy-biphenyl-3-ylmethyl]-(4-methylamino-cyclohexyl)-amide hydrochloride] showed an EC50 (sonic hedgehog pathway [3]) of less than 50 nM, an EC50 (sonic hedgehog pathway [4]) of less than 50 nM and an EC50 (sonic hedgehog pathway [5]) of less than 50 nM. It also gave an EC50 (sonic hedgehog pathway [6]) of less than 50 nM.
`CNC1CCC(N(Cc2cc(-c3ccncc3)ccc2OC)C(=O)c2sc3ccccc3c2Cl)CC1` (stereo not shown) was tested, and the “C57BL/6 Hair Growth” value (C57BL/6 male mice [1]) was “yes” and the “Androgenetic Alopecia” value (C57BL/6 male mice [2]) was “yes”.
`CN[C@H]1CC[C@H](N(Cc2cc(-c3ccc(NS(C)(=O)=O)nc3)ccc2OC)C(=O)c2sc3c(F)ccc(F)c3c2Cl)CC1` was tested, and the “C57BL/6 Hair Growth” value (C57BL/6 male mice [1]) was “yes”.
In the case of `CN[C@H]1CC[C@H](N(Cc2cc(-c3ccc(C(N)=O)cc3)ccc2OC)C(=O)c2sc3c(F)ccc(F)c3c2Cl)CC1`, the “C57BL/6 Hair Growth” value (C57BL/6 male mice [1]) is reported as “yes” and the “Androgenetic Alopecia” value (C57BL/6 male mice [2]) is reported as “yes”.
For `CN[C@H]1CC[C@H](N(Cc2cc(-c3ccc(N)nc3)ccc2OC)C(=O)c2sc3cccc(F)c3c2Cl)CC1`, the “C57BL/6 Hair Growth” value (C57BL/6 male mice [1]) was “yes” and the “Androgenetic Alopecia” value (C57BL/6 male mice [2]) was “yes”.
`CN[C@H]1CC[C@@H](N(Cc2cc(-c3ccc(C)nc3)ccc2OC)C(=O)c2sc3c(F)ccc(F)c3c2Cl)CC1` [Compound 334, 3-Chloro-4,7-difluoro-benzo[b]thiophene-2-carboxylic acid [2-methoxy-5-(6-methyl-pyridin-3-yl)-benzyl]-(4-methylamino-cyclohexyl)-amide bis(trifluoroacetate)] showed an EC50 (sonic hedgehog pathway [3]) of less than 50 nM, an EC50 (sonic hedgehog pathway [4]) of less than 50 nM and an EC50 (sonic hedgehog pathway [5]) of less than 50 nM. For the same molecule, the EC50 (sonic hedgehog pathway [6]) was less than 50 nM.
With `CN[C@H]1CC[C@H](N(Cc2cc(-c3ccnc(C(=O)OC)c3)ccc2OC)C(=O)c2sc3c(F)ccc(F)c3c2Cl)CC1` [drawing 714] the “C57BL/6 Hair Growth” value (C57BL/6 male mice [1]) was “yes” and the “Androgenetic Alopecia” value (C57BL/6 male mice [2]) was “yes”.
`CN[C@H]1CC[C@@H](N(Cc2cc(-c3ccc(CO)cc3)ccc2OC)C(=O)c2sc3c(F)ccc(F)c3c2Cl)CC1` [Compound 338, 3-Chloro-4,7-difluoro-benzo[b]thiophene-2-carboxylic acid (4′-hydroxymethyl-4-methoxy-biphenyl-3-ylmethyl)-(4-methylamino-cyclohexyl)-amide trifluoroacetate] gave an EC50 (sonic hedgehog pathway [3]) of less than 50 nM, an EC50 (sonic hedgehog pathway [4]) of less than 50 nM and an EC50 (sonic hedgehog pathway [5]) of less than 50 nM. The EC50 (sonic hedgehog pathway [6]) was less than 50 nM.
With `CN[C@H]1CC[C@H](N(Cc2cc(-c3cc(C)nc(C)c3)ccc2OC)C(=O)c2sc3ccccc3c2Cl)CC1` the “C57BL/6 Hair Growth” value (C57BL/6 male mice [1]) was “yes” and the “Androgenetic Alopecia” value (C57BL/6 male mice [2]) was “yes”.
`CN[C@H]1CC[C@@H](N(Cc2cc(-c3ccc(C(N)=O)cc3)ccc2OC)C(=O)c2sc3cccc(F)c3c2Cl)CC1` [Compound 346, 3-Chloro-4-fluoro-benzo[b]thiophene-2-carboxylic acid (4′-carbamoyl-4-methoxy-biphenyl-3-ylmethyl)-(4-methylamino-cyclohexyl)-amide hydrochloride] showed an EC50 (sonic hedgehog pathway [3]) of less than 50 nM, an EC50 (sonic hedgehog pathway [4]) of less than 50 nM and an EC50 (sonic hedgehog pathway [5]) of less than 50 nM. The EC50 (sonic hedgehog pathway [6]) was less than 50 nM.
Molecule `CNc1cc(-c2ccc(OC)c(CN(C(=O)c3sc4c(F)ccc(F)c4c3Cl)[C@H]3CC[C@@H](NC)CC3)c2)ccn1` [Compound 357, 3-Chloro-4,7-difluoro-benzo[b]thiophene-2-carboxylic acid [2-methoxy-5-(2-methylamino-pyridin-4-yl)-benzyl]-(4-methylamino-cyclohexyl)-amide bis(trifluoroacetate)] has an EC50 (sonic hedgehog pathway [3]) of less than 50 nM, an EC50 (sonic hedgehog pathway [4]) of less than 50 nM and an EC50 (sonic hedgehog pathway [5]) of less than 50 nM. It also gave an EC50 (sonic hedgehog pathway [6]) of less than 50 nM.
In the case of `CN[C@H]1CC[C@@H](N(Cc2cc(-c3ccc(C(C)=O)cc3)ccc2OC)C(=O)c2sc3ccccc3c2Cl)CC1` [Compound 303, 3-Chloro-benzo[b]thiophene-2-carboxylic acid (4′-acetyl-4-methoxy-biphenyl-3-ylmethyl)-(4-methylamino-cyclohexyl)-amide hydrochloride], the EC50 (sonic hedgehog pathway [3]) is reported as less than 50 nM, the EC50 (sonic hedgehog pathway [4]) is reported as less than 50 nM and the EC50 (sonic hedgehog pathway [5]) is reported as less than 50 nM. The EC50 (sonic hedgehog pathway [6]) was less than 50 nM.
For `CN[C@H]1CC[C@H](N(Cc2cc(-c3ccnc(C(=O)OC)c3)ccc2OC)C(=O)c2sc3c(F)ccc(F)c3c2Cl)CC1` [Compound R5, Methyl 4-(3-{[(3-chloro-4,7-difluoro-benzo[b]thiophene-2-carbonyl)-(4-methylamino-cyclohexyl)-amino]-methyl}-4-methoxy-phenyl)-pyridine-2-carboxylate], the EC50 (sonic hedgehog pathway [3]) was less than 50 nM, the EC50 (sonic hedgehog pathway [4]) was less than 50 nM and the EC50 (sonic hedgehog pathway [5]) was less than 50 nM. It also gave an EC50 (sonic hedgehog pathway [6]) of less than 50 nM.
Work on `CN[C@H]1CC[C@@H](N(Cc2cc(-c3ccncc3)ccc2OC)C(=O)c2sc3c(F)ccc(F)c3c2Cl)CC1` [Compound 342, 3-Chloro-4,7-difluoro-benzo[b]thiophene-2-carboxylic acid (2-methoxy-5-pyridin-4-yl-benzyl)-(4-methylamino-cyclohexyl)-amide dihydrochloride] yielded an EC50 (sonic hedgehog pathway [3]) of less than 50 nM, an EC50 (sonic hedgehog pathway [4]) of less than 50 nM and an EC50 (sonic hedgehog pathway [5]) of less than 50 nM. For the same molecule, the EC50 (sonic hedgehog pathway [6]) was less than 50 nM.
With `CN[C@H]1CC[C@H](N(Cc2cc(-c3ccccc3)ccc2OC)C(=O)c2sc3ccccc3c2Cl)CC1` the “C57BL/6 Hair Growth” value (C57BL/6 male mice [1]) was “yes” and the “Androgenetic Alopecia” value (C57BL/6 male mice [2]) was “yes”.
`CCOc1ccc(-c2ccc(C)nc2)cc1CN(C(=O)c1sc2ccccc2c1Cl)[C@H]1CC[C@H](NC)CC1` was tested, and the “C57BL/6 Hair Growth” value (C57BL/6 male mice [1]) was “yes”.
In the case of `CN[C@H]1CC[C@@H](N(Cc2cc(-c3ccnc(C)c3)ccc2OC)C(=O)c2sc3cccc(F)c3c2Cl)CC1` [Compound 348, 3-Chloro-4-fluoro-benzo[b]thiophene-2-carboxylic acid [2-methoxy-5-(2-methyl-pyridin-4-yl)-benzyl]-(4-methylamino-cyclohexyl)-amide bis(trifluoroacetate)], the EC50 (sonic hedgehog pathway [3]) is reported as less than 50 nM, the EC50 (sonic hedgehog pathway [4]) is reported as less than 50 nM and the EC50 (sonic hedgehog pathway [5]) is reported as less than 50 nM. It also gave an EC50 (sonic hedgehog pathway [6]) of less than 50 nM.
